Reference: ChEMBL document CHEMBL4219159, “A genetically selected cyclic peptide inhibitor of BCL6 homodimerization” (Bioorg Med Chem, 2018)
Blank lines part the entries; values can stand above or below the compound they belong to. Active and inactive are the calls of the source. The rule behind the calls is not given here. Where a SMILES comes first, the peptide text is derived from it.

Tests used:
[1] = molecular target: T1, B-cell lymphoma 6 protein (Homo sapiens, UniProt P41182); assay: Binding affinity to recombinant N-terminal GST-tagged/RED-NHS labelled wild-type BCL6 BTB domain (5 to 129 residues) (unknown origin) expressed in Escherichia coli Rosetta BL21 (DE3) at 1 mM incubated for 30 mins under dark condition in by single-point microscale thermophoresis method
[2] = molecular target: T1, B-cell lymphoma 6 protein; assay: Binding affinity to recombinant N-terminal GST-tagged/RED-NHS labelled wild-type BCL6 BTB domain (5 to 129 residues) (unknown origin) expressed in Escherichia coli Rosetta BL21 (DE3) incubated for 30 mins under dark condition by microscale thermophoresis method; conditions: read-out: Kd(app)
[3] = molecular target: T1, B-cell lymphoma 6 protein; assay: Binding affinity to recombinant N-terminal GST-tagged/RED-NHS labelled wild-type BCL6 BTB domain (5 to 129 residues) (unknown origin) expressed in Escherichia coli Rosetta BL21 (DE3) incubated for 30 mins under dark condition in presence of DTT by microscale thermophoresis method
[4] = tested on: B-cell lymphoma 6 protein (Homo sapiens), P41182 [C8Q,C67R,C84N]; assay: Binding affinity to recombinant RED-NHS labelled BCL6 BTB domain (unknown origin) C8Q/C67R/C84N triple mutant expressed in Escherichia coli Rosetta BL21 (DE3) assessed as decrease in SMRT2 peptide binding incubated for 30 mins under dark condition by microscale thermophoresis method relative to control
[5] = tested on: B-cell lymphoma 6 protein (Homo sapiens), P41182 [C8Q,C67R,C84N]; assay: Stabilization of recombinant BCL6 BTB domain (unknown origin) C8Q/C67R/C84N triple mutant expressed in Escherichia coli Rosetta BL21 (DE3) assessed as change in melting temperature measured every 30 secs by SYPRO orange dye based thermal shift assay
[6] = molecular target: B-cell lymphoma 6 protein (Homo sapiens, UniProt P41182, C67R/C84N/C8Q); assay: Binding affinity to recombinant RED-NHS labelled BCL6 BTB domain (unknown origin) C8Q/C67R/C84N triple mutant expressed in Escherichia coli Rosetta BL21 (DE3) incubated for 30 mins under dark condition by microscale thermophoresis method; conditions: read-out: Kd(app)
[7] = tested on: B-cell lymphoma 6 protein (Homo sapiens), P41182 [C8Q,C67R,C84N]; assay: Inhibition of recombinant BCL6 C8Q/C67R/C84N triple mutant BTB domain dimerization (unknown origin) expressed in Escherichia coli Rosetta BL21 (DE3) at 500 uM by size exclusion chromatographic method
[8] = molecular target: T1, B-cell lymphoma 6 protein; assay: Stabilization of recombinant N-terminal GST-tagged wild-type BCL6 BTB domain (5 to 129 residues) (unknown origin) expressed in Escherichia coli Rosetta BL21 (DE3) assessed as change in melting temperature measured every 30 secs by SYPRO orange dye based thermal shift assay
[9] = tested on: B-cell lymphoma 6 protein (Homo sapiens), P41182 [C8Q,C67R,C84N]; assay: Binding affinity to recombinant RED-NHS labelled BCL6 BTB domain (unknown origin) C8Q/C67R/C84N triple mutant expressed in Escherichia coli Rosetta BL21 (DE3) incubated for 30 mins under dark condition in presence of DTT by microscale thermophoresis method

SMILES: CC[C@@H](C)[C@@H]1NC(=O)[C@H](CS)NC(=O)[C@H](C)NC(=O)[C@H](CS)NC(=O)[C@H](Cc2ccc(O)cc2)NC(=O)[C@H](Cc2ccc(O)cc2)NC1=O
Activity [1]: Active

SMILES: CC[C@@H](C)[C@@H]1NC(=O)[C@H](CS)NC(=O)[C@H](C(C)C)NC(=O)[C@H](CS)NC(=O)[C@H](Cc2ccc(O)cc2)NC(=O)[C@H](Cc2ccc(O)cc2)NC1=O
Kd [2]: 142 µM | Activity [3]: inactive | fold change (FC) [4]: 3 | Activity [5]: Dose-dependent effect | Kd [6]: 50 µM | inhibition [7]: Active | Activity [8]: Dose-dependent effect | Activity [1]: Active | Activity [9]: inactive

SMILES: CC(C)[C@@H]1NC(=O)[C@H](CS)NC(=O)[C@H](Cc2ccc(O)cc2)NC(=O)[C@H](Cc2ccc(O)cc2)NC(=O)[C@H](C)NC(=O)[C@H](CS)NC1=O (cyclo(AYYCVC))
Activity [1]: Active

Next, values leading:

Activity [1]: inactive
SMILES: CC[C@@H](C)[C@@H]1NC(=O)[C@H](C)NC(=O)[C@H](C(C)C)NC(=O)[C@H](CS)NC(=O)[C@H](Cc2ccc(O)cc2)NC(=O)[C@H](Cc2ccc(O)cc2)NC1=O

Activity [1]: inactive
SMILES: CC[C@@H](C)[C@@H]1NC(=O)[C@H](CS)NC(=O)[C@H](C(C)C)NC(=O)[C@H](CS)NC(=O)[C@H](C)NC(=O)[C@H](Cc2ccc(O)cc2)NC1=O

Activity [1]: inactive
SMILES: CC[C@@H](C)[C@@H]1NC(=O)[C@H](CS)NC(=O)[C@H](C(C)C)NC(=O)[C@H](C)NC(=O)[C@H](Cc2ccc(O)cc2)NC(=O)[C@H](Cc2ccc(O)cc2)NC1=O

Activity [1]: Active
SMILES: CC[C@@H](C)[C@@H]1NC(=O)[C@H](CS)NC(=O)[C@H](C(C)C)NC(=O)[C@H](CS)NC(=O)[C@H](Cc2ccc(O)cc2)NC(=O)[C@H](C)NC1=O
